Source: US7625841B2, “Substituted thiene-3-ylsulphonylamino(thio)carbonyltriazolin(ethi)ones” (Bayer CropScience AG, priority 2001, dated 2009)

How the values were obtained:
Type in all cases: in vivo
Viola = experiment: Post-emergence test/greenhouse; settings: greenhouse, application rate 15 gai/ha, rated after three weeks, 0%=no effect, 100%=total destruction
How it was run: (§1)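 Read-out: % damage relative to untreated control, scored three weeks post-spray; 0% = no effect, 100% = total destruction. Plants at 5-15 cm height were sprayed post-emergence with acetone/alkylaryl polyglycol ether formulations diluted in water, applied in 1000 l water/ha.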

Lolium [1] = experiment: Post-emergence test/greenhouse; settings: greenhouse, application rate 15 gai/ha, rated after three weeks, 0%=no effect, 100%=total destruction
How it was run: as §1

Xanthium [2] = experiment: Post-emergence test/greenhouse; settings: greenhouse, application rate 15 gai/ha, rated after three weeks, 0%=no effect, 100%=total destruction
How it was run: as §1

rape = experiment: Post-emergence test/greenhouse; settings: greenhouse, application rate 15 gai/ha, rated after three weeks, 0%=no effect, 100%=total destruction
How it was run: as §1

Avena fatua [3] = experiment: Post-emergence test/greenhouse; settings: greenhouse, application rate 15 gai/ha, rated after three weeks, 0%=no effect, 100%=total destruction
How it was run: as §1

Echinochloa = experiment: Post-emergence test/greenhouse; settings: greenhouse, application rate 15 gai/ha, rated after three weeks, 0%=no effect, 100%=total destruction
How it was run: as §1

Datura = experiment: Post-emergence test/greenhouse; settings: greenhouse, application rate 15 gai/ha, rated after three weeks, 0%=no effect, 100%=total destruction
How it was run: as §1

Setaria [4] = experiment: Post-emergence test/greenhouse; settings: greenhouse, application rate 15 gai/ha, rated after three weeks, 0%=no effect, 100%=total destruction
How it was run: as §1

wheat [5] = experiment: Post-emergence test/greenhouse; settings: greenhouse, application rate 15 gai/ha, rated after three weeks, 0%=no effect, 100%=total destruction
How it was run: as §1

Chenopodium [6] = experiment: Post-emergence test/greenhouse; settings: greenhouse, application rate 15 gai/ha, rated after three weeks, 0%=no effect, 100%=total destruction
How it was run: as §1

Alopecurus [7] = experiment: Post-emergence test/greenhouse; settings: greenhouse, application rate 15 gai/ha, rated after three weeks, 0%=no effect, 100%=total destruction
How it was run: as §1

Bromus [8] = experiment: Post-emergence test/greenhouse; settings: greenhouse, application rate 15 gai/ha, rated after three weeks, 0%=no effect, 100%=total destruction
How it was run: as §1

Polygonum [9] = experiment: Post-emergence test/greenhouse; settings: greenhouse, application rate 15 gai/ha, rated after three weeks, 0%=no effect, 100%=total destruction
How it was run: as §1

maize [10] = experiment: Post-emergence test/greenhouse; settings: greenhouse, application rate 15 gai/ha, rated after three weeks, 0%=no effect, 100%=total destruction
How it was run: as §1

Digitaria [11] = experiment: Post-emergence test/greenhouse; settings: greenhouse, application rate 15 gai/ha, rated after three weeks, 0%=no effect, 100%=total destruction
How it was run: as §1

soybeans = experiment: Pre-emergence test/greenhouse; settings: greenhouse, application rate 15 gai/ha, rated after three weeks, 0%=no effect, 100%=total destruction
How it was run: (§2)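 Pre-emergence soil spray 24 h after sowing; spray volume 1000 L water/ha; acetone/alkylaryl polyglycol ether formulation diluted in water. Scored at 3 weeks as % damage vs untreated (0–100%).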

Solanum = experiment: Pre-emergence test/greenhouse; settings: greenhouse, application rate 15 gai/ha, rated after three weeks, 0%=no effect, 100%=total destruction
How it was run: as §2

Galium = experiment: Pre-emergence test/greenhouse; settings: greenhouse, application rate 15 gai/ha, rated after three weeks, 0%=no effect, 100%=total destruction
How it was run: as §2

Lolium [12] = experiment: Pre-emergence test/greenhouse; settings: Lolium, 504 h, greenhouse, application rate 15 gai/ha, rated after three weeks, 0%=no effect, 100%=total destruction, read-out: degree of damage to the plants, Lolium
How it was run: as §2

Xanthium [13] = experiment: Pre-emergence test/greenhouse; settings: Xanthium, 504 h, greenhouse, application rate 15 gai/ha, rated after three weeks, 0%=no effect, 100%=total destruction, read-out: degree of damage to the plants, Xanthium
How it was run: as §2

Avena fatua [14] = experiment: Pre-emergence test/greenhouse; settings: greenhouse, application rate 15 gai/ha, rated after three weeks, 0%=no effect, 100%=total destruction
How it was run: as §2

Setaria [15] = experiment: Pre-emergence test/greenhouse; settings: greenhouse, application rate 15 gai/ha, rated after three weeks, 0%=no effect, 100%=total destruction
How it was run: as §2

Matricaria = experiment: Pre-emergence test/greenhouse; settings: Matricaria, 504 h, greenhouse, application rate 15 gai/ha, rated after three weeks, 0%=no effect, 100%=total destruction, read-out: degree of damage to the plants, Matricaria
How it was run: as §2

wheat [16] = experiment: Pre-emergence test/greenhouse; settings: Triticum aestivum, 504 h, greenhouse, application rate 15 gai/ha, rated after three weeks, 0%=no effect, 100%=total destruction, read-out: degree of damage to the plants, wheat
How it was run: as §2

Chenopodium [17] = experiment: Pre-emergence test/greenhouse; settings: greenhouse, application rate 15 gai/ha, rated after three weeks, 0%=no effect, 100%=total destruction
How it was run: as §2

Alopecurus [18] = experiment: Pre-emergence test/greenhouse; settings: greenhouse, application rate 15 gai/ha, rated after three weeks, 0%=no effect, 100%=total destruction
How it was run: as §2

Bromus [19] = experiment: Pre-emergence test/greenhouse; settings: greenhouse, application rate 15 gai/ha, rated after three weeks, 0%=no effect, 100%=total destruction
How it was run: as §2

Polygonum [20] = experiment: Pre-emergence test/greenhouse; settings: greenhouse, application rate 15 gai/ha, rated after three weeks, 0%=no effect, 100%=total destruction
How it was run: as §2

maize [21] = experiment: Pre-emergence test/greenhouse; settings: Zea mays, 504 h, greenhouse, application rate 15 gai/ha, rated after three weeks, 0%=no effect, 100%=total destruction, read-out: degree of damage to the plants, maize
How it was run: as §2

Digitaria [22] = experiment: Pre-emergence test/greenhouse; settings: greenhouse, application rate 15 gai/ha, rated after three weeks, 0%=no effect, 100%=total destruction
How it was run: as §2

Stellaria = experiment: Pre-emergence test/greenhouse; settings: Stellaria, 504 h, greenhouse, application rate 15 gai/ha, rated after three weeks, 0%=no effect, 100%=total destruction, read-out: degree of damage to the plants, Stellaria
How it was run: as §2

CCCOc1nn(C(=O)NS(=O)(=O)c2c(C(=O)OC)csc2C)c(=O)n1C [(A), methyl 4-[[[(4,5-dihydro-4-methyl-5-oxo-3-n-propoxy-1H-1,2,4-triazol-1-yl)carbonyl]-amino]sulfonyl]-5-methyl-3-thiophenecarboxylate, reference compound]
degree of damage to the plants, Viola (Viola): 30% | degree of damage to the plants, Lolium (Lolium [1]): 30% | degree of damage to the plants, Xanthium (Xanthium [2]): 70% | degree of damage to the plants, rape (rape): 95% | degree of damage to the plants, Avena fatua (Avena fatua [3]): 30% | degree of damage to the plants, Echinochloa (Echinochloa): 60% | degree of damage to the plants, Datura (Datura): 50% | degree of damage to the plants, Setaria (Setaria [4]): 30% | degree of damage to the plants, wheat (wheat [5]): 0% | degree of damage to the plants, Chenopodium (Chenopodium [6]): 80% | degree of damage to the plants, Alopecurus (Alopecurus [7]): 70% | degree of damage to the plants, Bromus (Bromus [8]): 50% | degree of damage to the plants, Polygonum (Polygonum [9]): 50% | degree of damage to the plants, maize (maize [10]): 30% | degree of damage to the plants, Digitaria (Digitaria [11]): 10% | degree of damage to the plants, soybeans (soybeans): 0% | degree of damage to the plants, Solanum (Solanum): 80% | degree of damage to the plants, Galium (Galium): 10% | pest or weed control at 15 g/ha (Lolium [12]): 0% | pest or weed control at 15 g/ha (Xanthium [13]): 0% | degree of damage to the plants, Avena fatua (Avena fatua [14]): 0% | degree of damage to the plants, Setaria (Setaria [15]): 0% | pest or weed control at 15 g/ha (Matricaria): 50% | plant injury at 15 g/ha (wheat [16]): 0% | degree of damage to the plants, Chenopodium (Chenopodium [17]): 50% | degree of damage to the plants, Alopecurus (Alopecurus [18]): 60% | degree of damage to the plants, Bromus (Bromus [19]): 60% | degree of damage to the plants, Polygonum (Polygonum [20]): 0% | plant injury at 15 g/ha (maize [21]): 0% | degree of damage to the plants, Digitaria (Digitaria [22]): 0% | pest or weed control at 15 g/ha (Stellaria): 80%
